Reference: ChEMBL document CHEMBL4507268 (2021)

Assays:
Conditions in all cases: Compound concentration 1.0 uM
[1] = target: Mitogen-activated protein kinase 10 (Homo sapiens) (UniProt P53779)
[2] = target: Leucine-rich repeat serine/threonine-protein kinase 2 (Homo sapiens) (UniProt Q5S007)
[3] = target: Dual specificity mitogen-activated protein kinase kinase 2 (Homo sapiens) (UniProt P36507)
[4] = target: T1, Mitogen-activated protein kinase kinase kinase 2 (Homo sapiens) (UniProt Q9Y2U5)
T1 sequence (whole entry): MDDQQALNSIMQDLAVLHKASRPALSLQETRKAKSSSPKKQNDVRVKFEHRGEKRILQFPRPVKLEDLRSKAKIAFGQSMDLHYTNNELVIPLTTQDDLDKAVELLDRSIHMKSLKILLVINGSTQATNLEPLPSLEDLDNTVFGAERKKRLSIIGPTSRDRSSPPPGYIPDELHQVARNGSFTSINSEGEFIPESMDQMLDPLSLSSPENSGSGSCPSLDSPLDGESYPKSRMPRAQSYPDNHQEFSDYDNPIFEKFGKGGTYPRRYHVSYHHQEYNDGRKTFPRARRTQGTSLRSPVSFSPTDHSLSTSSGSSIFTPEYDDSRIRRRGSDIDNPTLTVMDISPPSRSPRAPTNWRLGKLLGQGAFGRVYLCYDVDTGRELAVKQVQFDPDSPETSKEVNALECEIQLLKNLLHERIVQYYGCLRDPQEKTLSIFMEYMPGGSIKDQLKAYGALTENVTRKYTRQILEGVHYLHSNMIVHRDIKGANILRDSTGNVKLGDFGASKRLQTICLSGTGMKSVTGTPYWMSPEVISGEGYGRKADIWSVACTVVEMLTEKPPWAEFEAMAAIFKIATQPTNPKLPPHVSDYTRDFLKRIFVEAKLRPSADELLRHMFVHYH

[5] = target: Serine/threonine-protein kinase MRCK alpha (Homo sapiens) (UniProt Q5VT25)
Chain of Serine/threonine-protein kinase MRCK alpha (Homo sapiens) (Q5VT25 whole entry): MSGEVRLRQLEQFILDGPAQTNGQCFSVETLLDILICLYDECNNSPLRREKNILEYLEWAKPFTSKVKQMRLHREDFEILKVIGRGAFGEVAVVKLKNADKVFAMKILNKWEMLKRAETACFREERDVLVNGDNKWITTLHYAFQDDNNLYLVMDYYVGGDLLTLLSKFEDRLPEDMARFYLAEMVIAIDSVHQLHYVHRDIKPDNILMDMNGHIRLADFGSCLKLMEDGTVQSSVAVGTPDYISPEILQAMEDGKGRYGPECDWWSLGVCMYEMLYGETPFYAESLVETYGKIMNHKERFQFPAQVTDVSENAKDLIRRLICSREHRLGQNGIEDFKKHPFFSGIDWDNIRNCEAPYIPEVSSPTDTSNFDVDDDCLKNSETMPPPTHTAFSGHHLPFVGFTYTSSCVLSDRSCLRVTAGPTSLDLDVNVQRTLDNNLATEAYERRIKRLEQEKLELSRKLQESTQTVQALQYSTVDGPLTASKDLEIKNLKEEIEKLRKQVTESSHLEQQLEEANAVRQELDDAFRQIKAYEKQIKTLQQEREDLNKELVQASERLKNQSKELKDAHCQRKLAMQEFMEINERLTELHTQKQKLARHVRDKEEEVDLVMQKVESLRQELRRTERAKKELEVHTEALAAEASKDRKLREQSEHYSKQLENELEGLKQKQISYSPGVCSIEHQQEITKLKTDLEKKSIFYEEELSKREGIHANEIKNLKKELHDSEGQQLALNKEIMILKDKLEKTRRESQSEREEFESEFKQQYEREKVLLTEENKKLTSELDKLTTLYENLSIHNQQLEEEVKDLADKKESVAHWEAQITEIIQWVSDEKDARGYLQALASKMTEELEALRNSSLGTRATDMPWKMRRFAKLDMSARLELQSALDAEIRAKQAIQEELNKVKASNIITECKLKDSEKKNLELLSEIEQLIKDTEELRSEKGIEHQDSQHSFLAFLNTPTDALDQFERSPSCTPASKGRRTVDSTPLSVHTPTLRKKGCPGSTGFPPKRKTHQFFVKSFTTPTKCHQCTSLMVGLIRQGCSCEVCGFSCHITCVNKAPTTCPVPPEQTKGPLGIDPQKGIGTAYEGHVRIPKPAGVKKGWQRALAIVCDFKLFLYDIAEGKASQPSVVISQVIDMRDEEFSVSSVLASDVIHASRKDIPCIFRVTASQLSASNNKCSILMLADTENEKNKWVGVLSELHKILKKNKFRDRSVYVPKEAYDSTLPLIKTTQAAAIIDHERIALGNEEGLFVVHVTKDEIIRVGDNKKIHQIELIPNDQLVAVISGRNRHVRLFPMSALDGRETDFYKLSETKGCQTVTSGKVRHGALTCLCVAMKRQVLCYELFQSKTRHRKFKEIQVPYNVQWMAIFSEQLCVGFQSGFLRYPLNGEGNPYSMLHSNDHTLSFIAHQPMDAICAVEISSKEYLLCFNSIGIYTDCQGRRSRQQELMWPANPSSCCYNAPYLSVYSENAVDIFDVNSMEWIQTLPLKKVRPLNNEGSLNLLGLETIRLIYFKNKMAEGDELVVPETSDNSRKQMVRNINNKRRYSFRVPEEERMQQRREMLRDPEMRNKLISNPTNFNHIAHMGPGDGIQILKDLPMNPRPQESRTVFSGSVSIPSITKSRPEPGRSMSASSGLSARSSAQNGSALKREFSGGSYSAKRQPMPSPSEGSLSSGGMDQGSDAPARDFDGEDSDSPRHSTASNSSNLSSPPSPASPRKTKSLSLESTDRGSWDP

[6] = target: T2, Protein kinase C iota type (Homo sapiens) (UniProt P41743)
T2 sequence (whole entry): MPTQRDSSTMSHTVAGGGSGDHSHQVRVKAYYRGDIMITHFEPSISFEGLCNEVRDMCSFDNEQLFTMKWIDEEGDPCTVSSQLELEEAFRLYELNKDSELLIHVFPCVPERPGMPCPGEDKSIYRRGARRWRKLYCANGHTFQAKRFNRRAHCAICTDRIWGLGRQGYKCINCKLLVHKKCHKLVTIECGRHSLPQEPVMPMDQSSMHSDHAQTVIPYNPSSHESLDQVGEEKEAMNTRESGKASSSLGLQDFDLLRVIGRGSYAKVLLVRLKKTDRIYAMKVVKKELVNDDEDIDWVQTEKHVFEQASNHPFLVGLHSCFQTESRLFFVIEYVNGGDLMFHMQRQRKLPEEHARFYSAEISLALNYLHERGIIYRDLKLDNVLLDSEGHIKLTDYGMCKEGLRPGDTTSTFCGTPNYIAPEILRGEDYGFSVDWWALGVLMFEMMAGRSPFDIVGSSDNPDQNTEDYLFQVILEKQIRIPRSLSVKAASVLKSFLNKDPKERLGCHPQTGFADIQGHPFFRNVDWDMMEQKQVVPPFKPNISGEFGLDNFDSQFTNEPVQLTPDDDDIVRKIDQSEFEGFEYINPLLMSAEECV

[7] = target: T3, Receptor-interacting serine/threonine-protein kinase 1 (Homo sapiens) (UniProt Q13546)
T3 sequence (whole entry): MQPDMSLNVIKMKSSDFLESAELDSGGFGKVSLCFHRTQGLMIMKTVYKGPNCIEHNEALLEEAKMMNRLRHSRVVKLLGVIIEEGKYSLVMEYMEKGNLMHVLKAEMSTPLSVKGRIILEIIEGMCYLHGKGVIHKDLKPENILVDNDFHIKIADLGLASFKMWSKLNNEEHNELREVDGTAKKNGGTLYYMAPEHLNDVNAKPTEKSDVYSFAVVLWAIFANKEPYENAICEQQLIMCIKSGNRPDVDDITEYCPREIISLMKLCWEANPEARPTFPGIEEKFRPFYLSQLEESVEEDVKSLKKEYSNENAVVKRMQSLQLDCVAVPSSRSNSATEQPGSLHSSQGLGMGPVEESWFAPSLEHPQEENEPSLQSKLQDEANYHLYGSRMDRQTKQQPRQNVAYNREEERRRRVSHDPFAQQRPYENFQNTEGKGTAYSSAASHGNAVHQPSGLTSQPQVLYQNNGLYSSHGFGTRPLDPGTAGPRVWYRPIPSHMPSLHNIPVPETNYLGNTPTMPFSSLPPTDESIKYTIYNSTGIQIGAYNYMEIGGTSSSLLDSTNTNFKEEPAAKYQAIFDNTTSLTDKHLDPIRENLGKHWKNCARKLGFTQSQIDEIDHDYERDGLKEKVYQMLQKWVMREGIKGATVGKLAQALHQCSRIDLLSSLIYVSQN

[8] = target: T4, SNF-related serine/threonine-protein kinase (Homo sapiens) (UniProt Q9NRH2)
T4 sequence (whole entry): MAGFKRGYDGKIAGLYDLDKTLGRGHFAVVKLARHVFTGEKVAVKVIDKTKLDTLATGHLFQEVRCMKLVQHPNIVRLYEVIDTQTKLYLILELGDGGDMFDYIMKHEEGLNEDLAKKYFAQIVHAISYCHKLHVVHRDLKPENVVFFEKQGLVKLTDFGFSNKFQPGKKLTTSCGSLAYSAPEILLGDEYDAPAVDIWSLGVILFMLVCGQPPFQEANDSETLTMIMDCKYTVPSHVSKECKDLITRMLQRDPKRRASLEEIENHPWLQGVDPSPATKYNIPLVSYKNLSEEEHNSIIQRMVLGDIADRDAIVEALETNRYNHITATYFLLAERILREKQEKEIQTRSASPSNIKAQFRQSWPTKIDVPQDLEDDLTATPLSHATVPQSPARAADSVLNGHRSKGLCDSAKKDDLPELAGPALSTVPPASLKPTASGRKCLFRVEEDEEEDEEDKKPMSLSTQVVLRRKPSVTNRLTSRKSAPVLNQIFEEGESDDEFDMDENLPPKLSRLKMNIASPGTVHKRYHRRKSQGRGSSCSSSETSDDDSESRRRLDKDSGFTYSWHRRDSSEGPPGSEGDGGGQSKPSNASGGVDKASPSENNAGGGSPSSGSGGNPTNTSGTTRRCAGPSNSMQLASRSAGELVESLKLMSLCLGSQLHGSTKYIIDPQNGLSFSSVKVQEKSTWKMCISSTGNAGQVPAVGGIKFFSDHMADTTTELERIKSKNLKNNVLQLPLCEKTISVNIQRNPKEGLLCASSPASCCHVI

[9] = target: Serine/threonine-protein kinase 32B (Homo sapiens) (UniProt Q9NY57)

Measured: % residual kinase activity

Chain of Mitogen-activated protein kinase 10 (Homo sapiens) (P53779 whole entry): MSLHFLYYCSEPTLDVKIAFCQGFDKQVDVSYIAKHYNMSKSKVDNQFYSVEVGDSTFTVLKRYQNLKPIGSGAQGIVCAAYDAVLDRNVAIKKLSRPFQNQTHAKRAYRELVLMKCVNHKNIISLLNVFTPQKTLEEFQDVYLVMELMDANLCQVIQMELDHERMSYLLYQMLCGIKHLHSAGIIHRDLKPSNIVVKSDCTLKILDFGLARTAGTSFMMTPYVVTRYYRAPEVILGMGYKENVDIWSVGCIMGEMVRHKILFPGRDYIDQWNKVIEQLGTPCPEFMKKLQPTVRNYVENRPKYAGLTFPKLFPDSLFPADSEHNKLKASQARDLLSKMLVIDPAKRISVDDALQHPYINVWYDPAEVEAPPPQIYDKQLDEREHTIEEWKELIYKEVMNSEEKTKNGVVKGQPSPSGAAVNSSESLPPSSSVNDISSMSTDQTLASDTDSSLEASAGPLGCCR
Chain of Leucine-rich repeat serine/threonine-protein kinase 2 (Homo sapiens) (Q5S007 whole entry): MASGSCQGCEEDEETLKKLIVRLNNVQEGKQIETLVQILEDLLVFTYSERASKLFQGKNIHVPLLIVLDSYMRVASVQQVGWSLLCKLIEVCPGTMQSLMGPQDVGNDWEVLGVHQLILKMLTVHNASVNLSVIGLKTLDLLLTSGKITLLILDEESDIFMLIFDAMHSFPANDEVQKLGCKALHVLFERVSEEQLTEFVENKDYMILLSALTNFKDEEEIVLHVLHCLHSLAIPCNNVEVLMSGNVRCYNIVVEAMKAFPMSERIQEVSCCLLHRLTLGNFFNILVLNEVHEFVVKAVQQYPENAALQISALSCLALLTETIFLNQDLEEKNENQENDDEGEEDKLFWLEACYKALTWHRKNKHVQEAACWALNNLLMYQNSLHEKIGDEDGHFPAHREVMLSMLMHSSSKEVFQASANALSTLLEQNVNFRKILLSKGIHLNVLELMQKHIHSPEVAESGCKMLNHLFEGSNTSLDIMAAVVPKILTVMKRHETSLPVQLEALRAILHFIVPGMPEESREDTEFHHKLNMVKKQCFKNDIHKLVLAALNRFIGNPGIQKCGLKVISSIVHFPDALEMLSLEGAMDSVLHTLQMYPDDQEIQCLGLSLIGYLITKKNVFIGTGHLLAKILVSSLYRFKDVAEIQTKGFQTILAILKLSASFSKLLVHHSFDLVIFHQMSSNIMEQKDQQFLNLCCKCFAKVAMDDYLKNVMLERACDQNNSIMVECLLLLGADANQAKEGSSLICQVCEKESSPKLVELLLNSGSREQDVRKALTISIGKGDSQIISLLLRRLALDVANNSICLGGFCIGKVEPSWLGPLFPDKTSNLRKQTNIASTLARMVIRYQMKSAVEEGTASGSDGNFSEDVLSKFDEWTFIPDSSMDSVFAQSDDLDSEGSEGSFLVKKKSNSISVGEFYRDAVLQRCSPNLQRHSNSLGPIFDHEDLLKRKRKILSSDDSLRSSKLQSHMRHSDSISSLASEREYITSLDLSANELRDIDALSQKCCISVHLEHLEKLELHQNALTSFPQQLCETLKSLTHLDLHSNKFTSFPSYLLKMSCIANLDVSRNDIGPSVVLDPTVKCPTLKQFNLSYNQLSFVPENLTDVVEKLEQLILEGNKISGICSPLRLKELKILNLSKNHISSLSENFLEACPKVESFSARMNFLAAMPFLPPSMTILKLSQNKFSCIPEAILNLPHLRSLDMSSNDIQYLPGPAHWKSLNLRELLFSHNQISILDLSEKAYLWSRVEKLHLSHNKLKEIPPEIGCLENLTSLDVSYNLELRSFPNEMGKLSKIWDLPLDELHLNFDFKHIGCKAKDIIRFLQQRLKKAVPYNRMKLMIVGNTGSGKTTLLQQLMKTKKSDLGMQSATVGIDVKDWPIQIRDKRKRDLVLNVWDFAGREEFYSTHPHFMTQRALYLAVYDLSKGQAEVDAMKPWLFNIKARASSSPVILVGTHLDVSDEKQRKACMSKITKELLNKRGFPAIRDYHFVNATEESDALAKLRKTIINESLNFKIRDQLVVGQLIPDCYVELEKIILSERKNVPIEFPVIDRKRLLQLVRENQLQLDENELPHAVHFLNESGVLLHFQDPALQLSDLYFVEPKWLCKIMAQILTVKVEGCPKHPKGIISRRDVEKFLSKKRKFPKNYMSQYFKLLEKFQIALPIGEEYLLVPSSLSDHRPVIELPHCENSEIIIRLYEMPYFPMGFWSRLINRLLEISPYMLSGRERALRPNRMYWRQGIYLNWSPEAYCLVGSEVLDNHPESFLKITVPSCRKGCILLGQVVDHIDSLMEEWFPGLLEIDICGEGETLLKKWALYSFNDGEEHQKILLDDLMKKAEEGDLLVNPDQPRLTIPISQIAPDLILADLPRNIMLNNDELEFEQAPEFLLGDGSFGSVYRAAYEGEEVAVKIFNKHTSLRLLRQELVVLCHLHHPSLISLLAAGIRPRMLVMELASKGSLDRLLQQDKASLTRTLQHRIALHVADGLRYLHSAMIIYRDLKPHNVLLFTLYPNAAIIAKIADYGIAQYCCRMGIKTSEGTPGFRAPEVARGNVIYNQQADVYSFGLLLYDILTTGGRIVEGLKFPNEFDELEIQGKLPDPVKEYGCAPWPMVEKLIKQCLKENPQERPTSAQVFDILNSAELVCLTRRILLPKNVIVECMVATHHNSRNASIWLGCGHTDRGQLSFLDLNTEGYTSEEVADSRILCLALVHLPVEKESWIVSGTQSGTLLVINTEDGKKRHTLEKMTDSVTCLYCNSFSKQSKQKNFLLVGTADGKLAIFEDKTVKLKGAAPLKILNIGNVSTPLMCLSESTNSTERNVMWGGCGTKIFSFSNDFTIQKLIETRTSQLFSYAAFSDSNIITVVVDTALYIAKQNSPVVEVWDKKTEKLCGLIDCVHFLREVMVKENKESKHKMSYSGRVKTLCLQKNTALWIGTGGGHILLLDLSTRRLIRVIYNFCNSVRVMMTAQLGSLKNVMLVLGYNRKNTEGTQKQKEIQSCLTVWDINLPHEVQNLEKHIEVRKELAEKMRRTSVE
Chain of Dual specificity mitogen-activated protein kinase kinase 2 (Homo sapiens) (P36507 whole entry): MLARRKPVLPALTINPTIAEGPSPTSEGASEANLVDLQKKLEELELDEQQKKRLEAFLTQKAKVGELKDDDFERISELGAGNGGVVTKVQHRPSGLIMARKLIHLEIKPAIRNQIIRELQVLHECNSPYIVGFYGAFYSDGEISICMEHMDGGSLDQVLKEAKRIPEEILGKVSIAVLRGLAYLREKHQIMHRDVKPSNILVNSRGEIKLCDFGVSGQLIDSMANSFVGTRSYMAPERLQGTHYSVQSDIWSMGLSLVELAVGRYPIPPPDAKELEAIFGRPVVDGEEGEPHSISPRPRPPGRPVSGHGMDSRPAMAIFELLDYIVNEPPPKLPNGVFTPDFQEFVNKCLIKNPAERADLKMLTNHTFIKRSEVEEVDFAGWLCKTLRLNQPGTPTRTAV

CN1CCN(c2cnc3c(C4CCN(C(=O)c5ccc(OC(F)(F)F)cc5N)CC4)ncnc3c2)CC1 [BAY-885]
inactive: [1] 111% | [2] 102% | [3] 103% | [4] 116% | [5] 111% | [6] 102% | [7] 100% | [8] 118% | [9] 98%
